Test results: US20080096811A1, “[…] VPAC2 RECEPTOR PEPTIDE AGONISTS” (Eli Lilly and Company, published 2008)
*1 amine or outer side, *2 acyl side, *3 side chain or, on linkers, in order; H or OH if unused. Where a SMILES comes first, the peptide text is derived from it. Side-chain parts run from the residue outwards. The star is where a group is joined. γGlu = O=C(O)[C@H](CCC(=O)[*:2])N[*:1]; Palmitoyl = CCCCCCCCCCCCCCCC(=O)*; Hexanoyl = CCCCCC(=O)*

What was measured:
human VPAC2 [1] = target: T1, human VPAC2 (Homo sapiens, UniProt P41587); assay: DiscoveRx cAMP in vitro potency, human VPAC2; assay type: cell-based
T1 construct: expressed in transfected cells
T1 sequence (P41587 24-438): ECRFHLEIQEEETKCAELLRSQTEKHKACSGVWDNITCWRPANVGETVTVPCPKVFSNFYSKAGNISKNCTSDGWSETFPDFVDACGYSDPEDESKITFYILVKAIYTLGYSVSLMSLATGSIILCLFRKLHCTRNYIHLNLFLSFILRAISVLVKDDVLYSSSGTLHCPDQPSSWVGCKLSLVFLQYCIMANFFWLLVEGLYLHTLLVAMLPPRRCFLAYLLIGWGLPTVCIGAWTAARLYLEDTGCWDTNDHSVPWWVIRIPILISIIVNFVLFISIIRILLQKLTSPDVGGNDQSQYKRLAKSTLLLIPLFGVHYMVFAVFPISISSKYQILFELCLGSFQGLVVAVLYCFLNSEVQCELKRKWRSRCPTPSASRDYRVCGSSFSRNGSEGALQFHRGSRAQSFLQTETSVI
Description: (§1) Also, the cells are washed twice. The cells are incubated in assay buffer plus IBMX for 15 minutes at room temperature. […] The stimuli are present for 30 minutes. Then, the assay buffer is gently removed. […] At day 3, the assay described above for the VPAC2 receptor cell line is performed.

human VPAC2 [2] = target: T1, human VPAC2; assay: Alpha screen cAMP in vitro potency, human VPAC2; assay type: cell-based
human VPAC2 [3] = target: T1, human VPAC2; assay: Filter binding assay, human VPAC2 membranes, 125I-labeled VIP tracer
rat VPAC2 receptor = rat VPAC2 receptor (Rattus norvegicus, UniProt P35000); assay: cell-based
Sequence of rat VPAC2 receptor (P35000 23-437): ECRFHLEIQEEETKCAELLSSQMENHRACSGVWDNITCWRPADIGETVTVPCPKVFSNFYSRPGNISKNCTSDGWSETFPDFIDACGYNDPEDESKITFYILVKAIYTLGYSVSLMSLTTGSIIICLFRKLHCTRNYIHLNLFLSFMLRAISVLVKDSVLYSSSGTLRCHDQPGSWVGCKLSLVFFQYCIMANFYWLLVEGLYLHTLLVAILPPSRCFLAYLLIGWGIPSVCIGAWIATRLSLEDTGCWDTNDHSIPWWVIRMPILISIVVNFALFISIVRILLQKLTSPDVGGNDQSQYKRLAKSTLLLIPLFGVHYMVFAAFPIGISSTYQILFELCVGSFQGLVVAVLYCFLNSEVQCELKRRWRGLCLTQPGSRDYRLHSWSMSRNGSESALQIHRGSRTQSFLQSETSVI
Description: DiscoveRx: A CHO—S cell line stably expressing human VPAC2 receptor in a 96-well microtiter plate is seeded with 50,000 cells/well the day before the assay. The cells are allowed to attach for 24 hours in 200 μL culture medium. On the day of the experiment, the medium is removed. Also, the cells are washed twice. The cells are incubated in assay buffer plus IBMX for 15 minutes at room temperature. Afterwards, the stimuli are added and are dissolved in assay buffer. The stimuli are present for 30 minutes. Then, the assay buffer is gently removed. The cell lysis reagent of the DiscoveRx cAMP kit is added. Thereafter, the standard protocol for developing the cAMP signal as described by the manufacturer is used (DiscoveRx Inc., USA). EC50 values for cAMP generation are calculated from the raw signal or are based on absolute cAMP levels as determined by a standard curve performed on each plate.
CHO—PO cells are transiently transfected with rat VPAC1 or VPAC2 receptor DNA.

human VPAC1 [4] = target: T2, human VPAC1 (Homo sapiens, UniProt P32241); assay: Filter binding assay, human VPAC1 membranes, 125I-labeled VIP tracer; parameters: expressed in transfected cells
T2 sequence (P32241 31-457): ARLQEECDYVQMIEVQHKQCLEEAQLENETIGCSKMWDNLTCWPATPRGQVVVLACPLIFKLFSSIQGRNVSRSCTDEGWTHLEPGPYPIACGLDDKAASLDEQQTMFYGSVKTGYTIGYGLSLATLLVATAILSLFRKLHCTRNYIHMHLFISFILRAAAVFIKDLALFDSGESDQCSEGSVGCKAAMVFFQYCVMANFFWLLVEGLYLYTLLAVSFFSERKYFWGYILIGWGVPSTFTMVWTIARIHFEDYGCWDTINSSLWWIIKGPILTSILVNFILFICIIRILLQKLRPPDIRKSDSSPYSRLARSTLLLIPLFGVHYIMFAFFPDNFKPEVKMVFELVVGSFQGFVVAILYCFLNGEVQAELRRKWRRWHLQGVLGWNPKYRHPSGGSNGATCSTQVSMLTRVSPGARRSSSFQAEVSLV

human PAC1 [5] = target: T3, human PAC1 (Homo sapiens, UniProt P41586); assay: cell-based
T3 sequence (P41586 21-468): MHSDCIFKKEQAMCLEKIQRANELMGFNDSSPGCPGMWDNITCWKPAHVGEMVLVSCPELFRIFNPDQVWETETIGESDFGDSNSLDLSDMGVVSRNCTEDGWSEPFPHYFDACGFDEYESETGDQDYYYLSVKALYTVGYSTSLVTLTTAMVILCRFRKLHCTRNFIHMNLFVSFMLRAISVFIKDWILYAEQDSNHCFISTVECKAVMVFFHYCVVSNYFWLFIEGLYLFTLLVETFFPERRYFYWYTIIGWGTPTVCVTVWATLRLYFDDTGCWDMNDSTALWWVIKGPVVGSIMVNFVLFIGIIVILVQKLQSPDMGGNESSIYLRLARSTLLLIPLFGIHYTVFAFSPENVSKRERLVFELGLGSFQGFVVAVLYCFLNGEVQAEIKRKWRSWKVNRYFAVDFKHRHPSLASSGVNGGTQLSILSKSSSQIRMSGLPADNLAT
Description: as §1

human PAC1 [6] = target: T3, human PAC1; assay: biochemical
Normal Wistar rats = assay: Intravenous glucose tolerance test (IVGTT); assay type: in vivo; conditions: Wistar rat, insulin
Description: Intravenous glucose tolerance test (IVGTT): Normal Wistar rats are fasted overnight and are anesthetized prior to the experiment. A blood sampling catheter is inserted into the rats. The compound is given in the jugular vein. Blood samples are taken from the carotid artery. A blood sample is drawn immediately prior to the injection of glucose along with the compound. After the initial blood sample, glucose mixed with compound is injected intravenously (i.v.). A glucose challenge of 0.5 g/kg body weight is given, injecting a total of 1.5 mL vehicle with glucose and agonist per kg body weight. The peptide concentration vary to produce the desired dose in μg/kg. Blood samples are drawn at 2, 4, 6 and 10 minutes after giving glucose. The control group of animals receives the same vehicle along with glucose, but with no compound added. In some instances, a 30 minute post-glucose blood sample is drawn. Aprotinin is added to the blood sample (250 kIU/ml blood). The serum is then analyzed for glucose and insulin using standard methodologies.
The assay uses a formulated and calibrated peptide stock in PBS. Normally, this stock is a prediluted 100 μM stock. However, a more concentrated stock with approximately 1 mg agonist per mL is used. The specific concentration is always known. Variability in the maximal response is mostly due to variability in the vehicle dose.

human VPAC1 [7] = target: T2, human VPAC1; assay: DiscoveRx cAMP in vitro potency, human VPAC1; assay type: cell-based; parameters: expressed in transfected cells; host or cells: CHO-PO, transient transfection (Lipofectamine)
Description: as §1

[8] = target: T4, human VPAC1 receptor (human) (UniProt P32241)
T4 sequence: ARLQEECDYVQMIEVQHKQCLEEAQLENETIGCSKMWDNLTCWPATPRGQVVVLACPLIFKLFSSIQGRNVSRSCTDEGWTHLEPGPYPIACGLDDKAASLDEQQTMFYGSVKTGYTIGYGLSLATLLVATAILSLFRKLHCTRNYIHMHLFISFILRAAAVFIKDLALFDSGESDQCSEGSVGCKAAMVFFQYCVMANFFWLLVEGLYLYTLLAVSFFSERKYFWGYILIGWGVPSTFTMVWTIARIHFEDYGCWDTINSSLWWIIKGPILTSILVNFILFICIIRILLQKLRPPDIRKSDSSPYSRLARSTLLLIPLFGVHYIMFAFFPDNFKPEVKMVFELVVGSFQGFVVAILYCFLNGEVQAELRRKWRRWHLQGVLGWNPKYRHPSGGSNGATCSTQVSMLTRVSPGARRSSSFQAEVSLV

[9] = target: T5, human VPAC2 receptor (human) (UniProt P41587)
T5 sequence: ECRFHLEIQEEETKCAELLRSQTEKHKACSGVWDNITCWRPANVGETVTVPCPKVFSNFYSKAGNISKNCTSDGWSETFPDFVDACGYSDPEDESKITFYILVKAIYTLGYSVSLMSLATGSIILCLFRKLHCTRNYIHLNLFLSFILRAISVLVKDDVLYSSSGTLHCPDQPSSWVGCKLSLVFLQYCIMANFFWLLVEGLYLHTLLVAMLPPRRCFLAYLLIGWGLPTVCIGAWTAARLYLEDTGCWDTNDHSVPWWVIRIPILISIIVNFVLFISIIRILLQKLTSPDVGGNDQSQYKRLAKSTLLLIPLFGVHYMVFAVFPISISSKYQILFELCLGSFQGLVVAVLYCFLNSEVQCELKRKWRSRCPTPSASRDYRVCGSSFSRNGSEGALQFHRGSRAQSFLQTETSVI

human PAC1 receptor = human PAC1 receptor (human, UniProt P41586); assay: cell-based or functional assay
rat VPAC1 receptor = target: T6, rat VPAC1 receptor (rat, UniProt P30083); assay: cell-based or functional assay
T6 sequence: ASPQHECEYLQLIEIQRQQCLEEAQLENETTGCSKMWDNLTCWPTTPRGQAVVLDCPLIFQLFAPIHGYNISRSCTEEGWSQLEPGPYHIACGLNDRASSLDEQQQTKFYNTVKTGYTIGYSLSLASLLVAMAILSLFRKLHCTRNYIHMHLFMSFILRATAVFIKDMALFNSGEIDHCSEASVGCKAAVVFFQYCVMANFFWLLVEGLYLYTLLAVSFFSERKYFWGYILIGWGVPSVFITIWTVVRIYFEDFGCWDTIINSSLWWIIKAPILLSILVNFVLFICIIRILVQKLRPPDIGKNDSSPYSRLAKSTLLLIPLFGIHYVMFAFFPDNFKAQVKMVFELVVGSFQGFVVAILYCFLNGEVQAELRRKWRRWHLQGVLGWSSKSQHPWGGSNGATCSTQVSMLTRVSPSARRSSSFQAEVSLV

**Q.** For CCCCCCCCCCCCCCCC(=O)N[C@@H](CCC(=O)NCCCC[C@H](NC(=O)[C@@H]1CCCN1C(=O)[C@@H]1CCCN1C(=O)[C@@H]1CCCN1C(=O)[C@H](CO)NC(=O)[C@@H](NC(=O)[C@H](CCCNC(=N)N)NC(=O)[C@H](CO)NC(=O)[C@H](CC(N)=O)NC(=O)[C@H](CCCCN)NC(=O)[C@@H](NC(=O)[C@H](CO)NC(=O)[C@H](CCC(N)=O)NC(=O)[C@H](CC(C)C)NC(=O)[C@H](Cc1ccc(O)cc1)NC(=O)[C@H](CCCCN)NC(=O)[C@H](CCCCN)NC(=O)[C@H](C)NC(=O)[C@H](C)NC(=O)[C@@H](NC(=O)[C@H](CCC(N)=O)NC(=O)[C@H](CCCCN)NC(=O)[C@H](CCCNC(=N)N)NC(=O)[C@H](CC(C)C)NC(=O)[C@H](CCCNC(=N)N)NC(=O)[C@@H](NC(=O)[C@H](Cc1ccc(O)cc1)NC(=O)[C@H](CC(N)=O)NC(=O)[C@H](CC(=O)O)NC(=O)[C@@H](NC(=O)[C@H](Cc1ccccc1)NC(=O)[C@@H](NC(=O)[C@H](C)NC(=O)[C@H](CC(=O)O)NC(=O)[C@H](CO)NC(=O)[C@H](Cc1c[nH]cn1)NC(=O)CCCCC)C(C)C)[C@@H](C)O)[C@@H](C)O)C(C)C)[C@@H](C)CC)[C@@H](C)O)C(N)=O)C(=O)O [Agonist P81] (Hexanoyl-HSDAVFTDNYTRLRKQVAAKKYLQSIKNSRTSPPPK([γGlu-Palmitoyl])-NH2), which EC50 (human VPAC2 [1]) is on record?
**A.** 0.18 nM

**Q.** What about the EC50 (human VPAC2 [2]) of the same molecule?
**A.** 0.01 nM

**Q.** And the IC50 (human VPAC2 [3])?
**A.** 0.8 nM

**Q.** And the “Rat Serum Stability (Estimated purity in % after 18 hours)” value (10 μM peptide in rat serum, 37° C. vs 4° C. with aprotinin, 18 hours, EC50,4C/EC50,37C)?
**A.** 68.05%

**Q.** What about the EC50 (rat VPAC2 receptor) of the same molecule?
**A.** 0.05 nM

**Q.** And the IC50 (human VPAC1 [4])?
**A.** 228 nM

**Q.** Which results are given for CCCCCC(=O)N[C@@H](Cc1c[nH]cn1)C(=O)N[C@@H](CO)C(=O)N[C@@H](CC(=O)O)C(=O)N[C@@H](C)C(=O)N[C@H](C(=O)N[C@@H](Cc1ccccc1)C(=O)N[C@H](C(=O)N[C@@H](CC(=O)O)C(=O)N[C@@H](CC(N)=O)C(=O)N[C@@H](Cc1ccc(O)cc1)C(=O)N[C@H](C(=O)N[C@@H](CCCNC(=N)N)C(=O)N[C@@H](CC(C)C)C(=O)N[C@@H](CCCNC(=N)N)C(=O)N[C@@H](CCCCN)C(=O)N[C@@H](CCC(N)=O)C(=O)N[C@H](C(=O)N[C@@H](C)C(=O)N[C@@H](C)C(=O)N[C@@H](CCCCN)C(=O)N[C@@H](CCCCN)C(=O)N[C@@H](Cc1ccc(O)cc1)C(=O)N[C@@H](CC(C)C)C(=O)N[C@@H](CCC(N)=O)C(=O)N[C@@H](CO)C(=O)N[C@H](C(=O)N[C@@H](CCCCN)C(=O)N[C@@H](CC(N)=O)C(=O)N[C@@H](CO)C(=O)N[C@@H](CCCNC(=N)N)C(=O)N[C@H](C(=O)N[C@@H](CO)C(=O)N1CCC[C@H]1C(=O)N1CCC[C@H]1C(=O)N1CCC[C@H]1C(N)=O)[C@@H](C)O)[C@@H](C)CC)C(C)C)[C@@H](C)O)[C@@H](C)O)C(C)C [Agonist P30] (Hexanoyl-HSDAVFTDNYTRLRKQVAAKKYLQSIKNSRTSPPP-NH2)?
**A.** EC50 (human VPAC2 [1]): 0.09 nM; EC50 (human VPAC2 [2]): 0.08 nM; EC50 (human PAC1 [5]): 27 nM; IC50 (human VPAC2 [3]): 0.22 nM; IC50 (human PAC1 [6]): 214 nM; % increase AUC: Dose = 0.1 μg/kg (Normal Wistar rats; dose 0.1 μg/kg): 67%; % increase AUC: Dose = 0.5 μg/kg (Normal Wistar rats; dose 0.5 μg/kg): 241%; % increase AUC: Dose = 10 μg/kg (Normal Wistar rats; dose 10 μg/kg): 378%; Rat Serum Stability (Estimated purity in % after 72 hours) (rat serum, 72 hours): 1.0%; IC50 (human VPAC1 [4]): 33.8 nM; EC50 (human VPAC1 [7]): 6.45 nM

**Q.** Which EC50 (nM) for cAMP generation, DiscoveRx [8] does the source give for Ac-HSDAVFTDNYTRLRKQVAAKKYLQSIKNSRTSPPP-NH2 [P32] here?
**A.** 8.24 nM

**Q.** And the EC50 (nM) for cAMP generation, Alpha Screen [9]?
**A.** 0.32 nM

**Q.** What about the EC50 (nM) for cAMP generation, DiscoveRx [9] of the same molecule?
**A.** 0.65 nM

**Q.** What about the “EC50 (nM) for cAMP generation, DiscoveRx” value (human PAC1 receptor) of the same molecule?
**A.** 125 nM

**Q.** What about the “EC50 for cAMP generation, DiscoveRx” value (rat VPAC1 receptor) of the same molecule?
**A.** 0.73 nM
